Reference: US20140314904A1, “PRE-SLAUGHTER DIET INCLUDING METHIONINE” (ADISSEO FRANCE S.A.S., priority 2011, published 2014)

Key:
Assay type in all cases: in vivo, pig
[1] = system: slaughter pigs; assay: Warner-Bratzler shear force (WBSF), instrumental hardness; conditions: 7 days at 2° C., LS mean ± SEM
Experimental: In Example 1 twenty-one pigs were randomly assigned to one of three feeding groups (n=7). The control group received a standardized diet only. The DLM and HMTBA groups received the standardized diet plus a high-methionine supplement (either DLM (i.e. […] At 48 h post mortem, 3 cm thick pork chops were either vacuum packed or sealed in a modified atmosphere (MA; 80% O2) and stored for an additional 7 days at 2° C. Instrumental hardness was measured using the Warner-Bratzler shear force (WBSF; Newton) method. Protein oxidation was measured as the loss of free thiol groups in proteins (nmol thiol per mg protein) using Ellman's reagent. Lipid oxidation was measured as the increase in 2-thiobarbituric acid reactive substances (TBARS; mg malondialdehyde per kg meat). Twenty-one slaughter pigs ([Yorkshire×Swedish Landrace]×Hampshire) were raised on a commercial diet. Pigs were randomly assigned to one of three groups (n=7). […] Pork chops were cut perpendicular to the long axis of each LD muscle. Six 3 cm thick pork chops was sliced from each LD. Three were vacuum packed and three were packed in a high-oxygen modified atmosphere. The chops were placed in plastic trays ([…]-43A white/PS; 195×144×43 mm in dimension; Frch Plast, Denmark) and placed in vacuum bags (EM-628862; […] The ambient air was removed from all vacuum bags using a vacuum machine (type, manufacturer, country). […] (until 9 days post mortem). The gas composition was checked (CheckMate 9900, PBI Dansensor, Denmark) before packaging and again prior to opening, at the end of the simulated display period in order to check for leakage. The oxygen-enriched environment was well maintained (83.4%) throughout the display period for all MA packages. Instrumental hardness was measured using the Warner-Bratzler shear force (WBSF) method. In short, at the end of the display period fresh samples were heated in a water bath in an oven (type, manufacturer, country). The temperature rise was monitored for one sample and the remaining samples were given the time to reach an internal temperature of 75° C. plus five minutes. The samples were cooled down before cores of 1 cm×1 cm×2.5 cm were excised for shear force analysis.

[2] = system: slaughter pigs; assay: Free protein thiol (protein oxidation, Ellman's reagent); conditions: for Level of free thiol (protein oxidation): 7 days at 2° C., LS mean ± SEM; for Decline of level of free thiol from storage without oxygen to high-oxygen MAP: vacuum versus MAP
Experimental: In Example 1 twenty-one pigs were randomly assigned to one of three feeding groups (n=7). The control group received a standardized diet only. The DLM and HMTBA groups received the standardized diet plus a high-methionine supplement (either DLM (i.e. […] At 48 h post mortem, 3 cm thick pork chops were either vacuum packed or sealed in a modified atmosphere (MA; 80% O2) and stored for an additional 7 days at 2° C. Instrumental hardness was measured using the Warner-Bratzler shear force (WBSF; Newton) method. Protein oxidation was measured as the loss of free thiol groups in proteins (nmol thiol per mg protein) using Ellman's reagent. Lipid oxidation was measured as the increase in 2-thiobarbituric acid reactive substances (TBARS; mg malondialdehyde per kg meat). Twenty-one slaughter pigs ([Yorkshire×Swedish Landrace]×Hampshire) were raised on a commercial diet. Pigs were randomly assigned to one of three groups (n=7). […] Pork chops were cut perpendicular to the long axis of each LD muscle. Six 3 cm thick pork chops was sliced from each LD. Three were vacuum packed and three were packed in a high-oxygen modified atmosphere. The chops were placed in plastic trays ([…]-43A white/PS; 195×144×43 mm in dimension; Frch Plast, Denmark) and placed in vacuum bags (EM-628862; […] The ambient air was removed from all vacuum bags using a vacuum machine (type, manufacturer, country). […] (until 9 days post mortem). The gas composition was checked (CheckMate 9900, PBI Dansensor, Denmark) before packaging and again prior to opening, at the end of the simulated display period in order to check for leakage. The oxygen-enriched environment was well maintained (83.4%) throughout the display period for all MA packages. […] In brief, the frozen pork samples were partially thawed at chill storage temperature for 30 minutes. Fat and connective tissue was removed and 1.0 g of lean meat was homogenised in 25 ml of 5.0% SDS (sodium dodecyl sulphate) in 0.10 M Tris ([…]) buffer, pH 8.0 using an Ultra Turrax (Ultra Turrax T-25, Janke & Kunkel IKA-Labortechnik, Germany). The homogenates were placed in a water bath at 80° C. for 30 minutes, and subsequently cooled and filtered. The protein concentration was determined spectrophotometrically (Helios Omega Single Beam UV-VIS, Fisher Scientific Biotech Line, Denmark) at a wavelength of 280 nm using a standard curve prepared from bovine serum albumin (BSA). […] Filtrate (25 μl), Tris buffer (100 μl) and DTNB (25 μl) were added to wells in a 96 well microtiter plate. The absorbance at 410 nm was measured before addition of DTNB (ABS410meat) and after reaction with DTNB (ABS410meat+DTNB). In addition, the absorbance of a blank solution (25 μl 5% SDS dissolved in 100 mM Tris buffer and 100 μl 0.10 M Tris buffer) was likewise measured at 410 nm. After addition of DTNB, the microtiter plate was stored in the dark and the absorbance was measured exactly 30 minutes later. The absorbance corresponding to the thiol concentration in the sample was CorrABS410=ABS410meat+DTNB-ABS410meat-ABS410blank. […] The concentration of free thiol groups was determined as nmol thiol per mg protein. Duplicate homogenates, and triplicate measurements on each homogenate, were made for each meat sample and the mean values were used for further statistical analysis.

[3] = system: pigs; assay: Colour by Minolta L*a*b*, Example 2; conditions: Laboratory, 2 days post mortem
Experimental: (§1) The pigs were slaughtered at a commercial slaughter house in Sweden after a resting time of 5 h. At 45 minutes post mortem, pH (Knick portamess 751) and temperature (digital thermometer, Weber) were measured in the M. longissiumus dorsi at the level of the 10th rib. At 48 h post mortem, the entire loins were dissected from the carcasses and transported to the University of Copenhagen for further measurements. Ultimate pH was measured, as well as colour by Minolta L*a*b*. Dry matter content was determined by drying muscle samples at 105° C. for 24 h. Slices of 3 cm thickness were cut, measured and vacuum packed before being stored for a further 7 days at 2° C. At the end of the storage period samples were heated to an internal temperature of 75° C. After being cooled down, samples were stored cold at 2° C. until they were cut into slabs of 1 cm×1 cm×2.5 cm size for shear force measurement. For each animal, 8 specimens were measured and the mean maximum load was used for further analysis.

[4] = system: pigs; assay: Dry matter content of muscle samples, Example 2; conditions: Laboratory, 2 days post mortem
Experimental: as §1

[5] = system: pigs; assay: Shear force (maximum load) after storage, Example 2; conditions: 9 days post mortem, P < 0.02
Experimental: as §1

Structure (SMILES)	Instrumental hardness, WBSF values ([1]; MAP (80% O2 + 20% CO2))	Instrumental hardness, WBSF values ([1]; Vacuum)	Level of free thiol (protein oxidation) ([2]; MAP (80% O2 + 20% CO2))	Level of free thiol (protein oxidation) ([2]; Vacuum)	Decline of level of free thiol from storage without oxygen to high-oxygen MAP [2]	Colour Minolta L* [3]	Colour Minolta a* [3]	Colour Minolta b* [3]	Dry Matter [4]	Maximum Load [5]
CSCCC(N)C(=O)O (racemic) [DLM, DL-methionine]	38.58 ± 3.65 ^A, B N	28.80 ± 3.65 ^D N	56.27 ± 1.13 ^B nmol thiol/mg protein	62.16 ± 1.19 ^A nmol thiol/mg protein	6.0 units	55.75 units	6.69 units	2.92 units	26%	34 N
CSCCC(O)C(=O)O (racemic) [HMTBA, 2-hydroxy-4-(methylthio) butanoic acid]	43.64 ± 3.65 ^A, B N	30.55 ± 3.65 ^C, D N	59.15 ± 1.13 ^A, B nmol thiol/mg protein	62.60 ± 1.13 ^A nmol thiol/mg protein	3.5 units	56.89 units	7.58 units	3.71 units	29%	37 N
